{"source": "patent US10947196B2", "about": "“Beta adrenergic agonist and methods of using the same” (CURASEN THERAPEUTICS, INC., priority 2019, dated 2021)", "key": {"β1-adrenergic receptor": {"biological_target": "β1-adrenergic receptor (Homo sapiens (Human), UniProt P08588)", "sequence (P08588 whole entry, species assumed)": "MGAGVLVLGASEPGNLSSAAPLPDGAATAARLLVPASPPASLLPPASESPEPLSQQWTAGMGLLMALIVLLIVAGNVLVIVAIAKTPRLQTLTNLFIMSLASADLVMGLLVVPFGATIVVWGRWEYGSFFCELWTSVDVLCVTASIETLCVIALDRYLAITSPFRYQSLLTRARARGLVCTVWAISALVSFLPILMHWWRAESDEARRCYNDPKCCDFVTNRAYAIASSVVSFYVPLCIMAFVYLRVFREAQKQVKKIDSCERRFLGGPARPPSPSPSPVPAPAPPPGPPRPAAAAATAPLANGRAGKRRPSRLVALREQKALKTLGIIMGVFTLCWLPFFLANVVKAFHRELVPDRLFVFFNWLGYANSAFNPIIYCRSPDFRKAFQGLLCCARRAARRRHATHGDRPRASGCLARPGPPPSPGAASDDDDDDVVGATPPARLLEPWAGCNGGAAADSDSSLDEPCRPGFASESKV", "assay": "cAMP Gs dynamic HTRF assay, β1 expressing CHO cells", "assay_type": "cell-based", "procedure,_shortened": "(§1)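 Intracellular cAMP quantified by Eu-donor/d2-acceptor HTRF after 30 min compound exposure at 37° C in stimulation buffer with IBMX. Concentrations ran 10 μM top, 5-fold steps, 10 points. Cell lines: 1321N1 astrocytoma and CHO expressing β1 or β2; EC50 via four-parameter fit, relative efficacy against isoproterenol.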"}, "MDR1": {"test_system": "MDR1", "assay": "MDCK-MDR1 permeability assay", "assay_type": "in vitro ADME", "conditions": "dog, MDCK-MDR1, pH 7.4; Papp(B-A)/Papp(A-B)", "experimental": "(§2) Preparation of MDCK-MDR1 Cells. Cell culture medium of was added to each well of the Transwell insert (50 μL) and reservoir (25 mL). The HTS transwell plates were then incubated at 37° C., 5% CO2 for 1 hour before cell seeding. MDCK-MDR1 cells were diluted to 1.56×10^6 cells/mL with culture medium and 50 μL of cell suspension were dispensed into the filter well of the 96-well HTS Transwell plate. Cells were cultivated for 4-8 days in a cell culture incubator at 37° C., 5% CO2, 95% relative humidity. Cell culture medium was replaced every other day, beginning no later than 24 hours after initial plating.\n(§3) Preparation of Stock Solutions. 10 mM stock solutions of test compounds were prepared in DMSO. The stock solutions of positive controls were prepared in DMSO at the concentration of 10 mM. Metoprolol, prazosin and imatinib were used as control compounds in this assay.\n(§4) Assessment of Cell Monolayer Integrity. Medium was removed from the reservoir and each Transwell insert and replaced with prewarmed fresh culture medium. Transepithelial electrical resistance (TEER) across the monolayer was measured using Millicell Epithelial Volt-Ohm measuring system (Millipore, USA). The Plate was returned to the incubator once the measurement was done. TEER value should be greater than 42 ohm·cm2, which indicates the well-qualified MDCK-MDR1 monolayer. The TEER value was calculated according to the following equation: TEER measurement (ohms)×Area of membrane(cm^2)=TEER value(ohm·cm^2)\n(§5) Assay Procedures. The MDCK-MDR1 plate was removed from the incubator and washed twice with pre-warmed HBSS (10 mM HEPES, pH 7.4), and then incubated at 37° C. for 30 minutes. The stock solutions of test compounds and controls were diluted in DMSO to get 1 mM solutions and then diluted with HBSS (10 mM HEPES, pH 7.4) to get 5 μM working solutions. The final concentration of DMSO in the incubation system was 0.5%.\n(§6) To determine the rate of drug transport in the apical to basolateral direction, 125 μL of 5 μM working solution of test compound and control compound were added to the Transwell insert (apical compartment), and transfer 50 μL sample (DO sample) immediately from the apical compartment to a new 96-well plate. The wells in the receiver plate (basolateral compartment) were filled with 235 μL of HBSS (10 mM HEPES, pH 7.4). The assay was performed in duplicate.\n(§7) To determine the rate of drug transport in the basolateral to apical direction, 285 μL of 5 μM working solution of test compound and control compound were to the receiver plate wells (basolateral compartment), and transfer 50 μL sample (DO sample) immediately from the basolateral compartment to a new 96-well plate. The wells in the Transwell insert (apical compartment) were filled with 75 μL of HBSS (10 mM HEPES, pH 7.4). The plates were incubated at 37° C. for 2 hours. At the end of the incubation, 50 μL samples from donor sides (apical compartment for Ap→Bl flux, and basolateral compartment for Bl→Ap) and receiver sides (basolateral compartment for Ap→Bl flux, and apical compartment for Bl→Ap) were transferred to wells of a new 96-well plate, followed by the addition of 4 volume of cold methanol containing appropriate internal standards (IS). Samples were Vortexed for 5 minutes and then centrifuged at 3,220 g for 40 minutes. An aliquot of 100 μL of the supernatant was mixed with an appropriate volume of ultra-pure water before LC-MS/MS analysis.\n(§8) To determine the Lucifer Yellow leakage after 2 hour transport period, stock solution of Lucifer yellow was prepared in DMSO and diluted with HBSS (10 mM HEPES, pH 7.4) to reach a final concentration of 100 μM. Lucifer yellow solution (100 μL) was added to each Transwell insert (apical compartment), followed by filling the wells in the receiver plate (basolateral compartment) with 300 μL of HBSS (10 mM HEPES, pH 7.4). […]"}, "[1]": {"assay": "MDCK-MDR1 permeability assay", "assay_type": "in vitro ADME", "conditions": "dog, MDCK-MDR1, pH 7.4, 5 μM, 2 hours; for Papp A→B at 2 h, 5 μM: apical to basolateral; for Papp B→A at 2 h, 5 μM: basolateral to apical", "experimental": "as §2, §3, §4, §5, §6, §7, §8"}, "β2 adrenergic receptor": {"biological_target": "β2 adrenergic receptor (Homo sapiens (Human), UniProt P07550)", "sequence (P07550 whole entry, species assumed)": "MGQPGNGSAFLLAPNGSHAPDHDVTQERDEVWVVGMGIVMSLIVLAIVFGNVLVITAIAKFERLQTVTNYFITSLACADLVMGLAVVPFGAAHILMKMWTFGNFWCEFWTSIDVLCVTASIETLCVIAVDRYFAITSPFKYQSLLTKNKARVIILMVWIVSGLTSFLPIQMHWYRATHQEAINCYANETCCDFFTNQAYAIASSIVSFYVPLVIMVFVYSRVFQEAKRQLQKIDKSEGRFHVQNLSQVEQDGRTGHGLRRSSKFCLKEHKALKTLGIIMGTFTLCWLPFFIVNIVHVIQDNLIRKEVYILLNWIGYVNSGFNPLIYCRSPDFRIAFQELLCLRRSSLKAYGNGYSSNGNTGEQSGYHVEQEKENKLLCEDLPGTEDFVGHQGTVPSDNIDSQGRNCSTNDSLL", "assay": "cAMP Gs dynamic HTRF assay, β2 expressing CHO cells", "assay_type": "cell-based", "procedure,_shortened": "as §1"}, "[2]": {"conditions": "B1-AR, CHO-K cells, read-out: Average EC50 [Receptor subtype: B1-AR, Cell type: CHO-K]"}, "[3]": {"conditions": "B2-AR, CHO-K cells, read-out: Average EC50 [Receptor subtype: B2-AR, Cell type: CHO-K]"}}, "note": "Read-outs that look alike come from different tables or passages of the source."}
{"smiles": "CC(C)(C)NC[C@H](O)c1cccc(C(F)(F)F)n1", "note": "[Compound 03-3]", "values": [{"measurement": "EC50", "setting": "β1-adrenergic receptor; β1 EC50 (nM), cAMP HTRF", "value": "10 to 100", "unit": "nM"}, {"measurement": "efflux ratio at 2 h, 5 μM", "setting": "MDR1", "value": 0.78}, {"measurement": "Papp A→B at 2 h, 5 μM", "setting": "[1]", "value": 253, "unit": "nm/s"}, {"measurement": "Papp B→A at 2 h, 5 μM", "setting": "[1]", "value": 198, "unit": "nm/s"}, {"measurement": "EC50", "setting": "β2 adrenergic receptor; cAMP HTRF, read-out: β2 EC50", "value": "< 0.01", "unit": "µM"}]}
{"smiles": "Cc1ncccc1[C@@H](O)CNC(C)(C)C", "note": "[Compound 03-115]", "values": [{"measurement": "Average pEC50 [Receptor subtype: B1-AR; Cell type: CHO-K1 (HitHunter)]", "setting": "β1-adrenergic receptor; B1-AR", "value": "C-D"}, {"measurement": "EC50", "setting": "β1-adrenergic receptor; [2]", "value": "> 1000", "unit": "nM"}, {"measurement": "efflux ratio at 2 h, 5 μM", "setting": "MDR1", "value": 1.58}, {"measurement": "Papp A→B at 2 h, 5 μM", "setting": "[1]", "value": 69.6, "unit": "nm/s"}, {"measurement": "Papp B→A at 2 h, 5 μM", "setting": "[1]", "value": 110, "unit": "nm/s"}, {"measurement": "EC50", "setting": "β2 adrenergic receptor; B2-AR, CHO-K1 (HitHunter), read-out: Average pEC50 [Receptor subtype: B2-AR, Cell type: CHO-K1 (HitHunter)] (converted)", "value": "0.01 to 0.1", "unit": "µM"}, {"measurement": "EC50", "setting": "β2 adrenergic receptor; [3]", "value": "0.01 to 0.1", "unit": "µM"}]}
{"smiles": "CC(C)(C)NC[C@H](O)c1cccc(C#N)n1", "note": "[Compound 03-5, (S)-6-(2-(tert-butylamino)-1-hydroxyethyl)picolinonitrile]", "values": [{"measurement": "Average pEC50 [Receptor subtype: B1-AR; Cell type: CHO-K1 (HitHunter)]", "setting": "β1-adrenergic receptor; B1-AR", "value": "C (C = <7-6)"}, {"measurement": "EC50", "setting": "β1-adrenergic receptor; [2]", "value": "100 to 1000", "unit": "nM"}, {"measurement": "efflux ratio at 2 h, 5 μM", "setting": "MDR1", "value": 1.06}, {"measurement": "Papp A→B at 2 h, 5 μM", "setting": "[1]", "value": 152, "unit": "nm/s"}, {"measurement": "Papp B→A at 2 h, 5 μM", "setting": "[1]", "value": 162, "unit": "nm/s"}, {"measurement": "Average pEC50 [Receptor subtype: B2-AR; Cell type: CHO-K1 (HitHunter)]", "setting": "β2 adrenergic receptor; B2-AR, CHO-K1 (HitHunter)", "value": "B-A"}, {"measurement": "EC50", "setting": "β2 adrenergic receptor; [3]", "value": "< 0.01", "unit": "µM"}]}
